Data reported in ChEMBL document CHEMBL3864148, “Synthesis of linear and angular aryl-morpholino-naphth-oxazines, their DNA-PK, PI3K, PDE3A and antiplatelet activity” (Bioorg Med Chem Lett, 2016).

How the values were obtained:
[1] = target: cGMP-inhibited 3',5'-cyclic phosphodiesterase 3A (Homo sapiens) (UniProt Q14432); experiment: Inhibition of PDE3A (unknown origin) at 10 uM relative to control
[2] = target: DNA-PK/Ku70/Ku85 (Homo sapiens) (UniProt P78527+P12956+P13010); experiment: Inhibition of human DNA-PK/Ku70/Ku85 at 10 uM using EPPLSQEAFADLWKK as substrate by HTRF assay relative to control
[3] = target: T1, Phosphatidylinositol 4,5-bisphosphate 3-kinase catalytic subunit beta isoform (Homo sapiens, UniProt P42338); experiment: Inhibition of p110beta (unknown origin) assessed as decrease in ATP consumption at 10 uM after 60 mins by Kinase-Glo assay relative to control
Target sequence in this assay (P42338 whole entry, looked up, canonical isoform): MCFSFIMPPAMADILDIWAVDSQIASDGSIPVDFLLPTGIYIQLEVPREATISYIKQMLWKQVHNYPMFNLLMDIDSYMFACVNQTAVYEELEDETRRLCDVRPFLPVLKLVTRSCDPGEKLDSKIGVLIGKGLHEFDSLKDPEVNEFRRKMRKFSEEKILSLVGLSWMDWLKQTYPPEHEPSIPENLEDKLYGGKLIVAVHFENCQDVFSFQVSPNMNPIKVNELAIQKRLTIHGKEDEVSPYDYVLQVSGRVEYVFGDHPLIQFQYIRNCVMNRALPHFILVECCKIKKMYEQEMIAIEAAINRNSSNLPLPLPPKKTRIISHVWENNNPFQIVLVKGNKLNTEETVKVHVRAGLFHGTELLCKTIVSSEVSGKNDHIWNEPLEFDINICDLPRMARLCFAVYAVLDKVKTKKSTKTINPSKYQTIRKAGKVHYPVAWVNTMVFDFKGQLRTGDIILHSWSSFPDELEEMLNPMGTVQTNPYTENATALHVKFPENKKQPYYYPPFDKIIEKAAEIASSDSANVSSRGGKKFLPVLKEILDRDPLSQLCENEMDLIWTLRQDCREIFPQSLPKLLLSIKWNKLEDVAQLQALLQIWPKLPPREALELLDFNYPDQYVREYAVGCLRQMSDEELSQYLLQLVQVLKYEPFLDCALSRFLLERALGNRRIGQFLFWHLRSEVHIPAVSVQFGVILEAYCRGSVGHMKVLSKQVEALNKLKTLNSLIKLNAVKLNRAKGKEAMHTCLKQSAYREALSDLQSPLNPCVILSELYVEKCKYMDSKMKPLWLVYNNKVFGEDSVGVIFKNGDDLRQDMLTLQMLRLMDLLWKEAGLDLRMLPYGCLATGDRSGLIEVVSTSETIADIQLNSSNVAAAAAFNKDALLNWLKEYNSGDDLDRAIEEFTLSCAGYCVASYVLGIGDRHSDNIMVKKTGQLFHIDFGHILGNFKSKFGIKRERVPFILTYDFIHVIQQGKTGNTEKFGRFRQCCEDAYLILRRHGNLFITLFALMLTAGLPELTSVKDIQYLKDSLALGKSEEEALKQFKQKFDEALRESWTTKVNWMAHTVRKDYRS

[4] = target: DNA-PK/Ku70/Ku85 (Homo sapiens, UniProt P12956+P13010+P78527); experiment: Inhibition of human DNA-PK/Ku70/Ku85 using EPPLSQEAFADLWKK as substrate by HTRF assay relative to control
[5] = target: T2, Phosphatidylinositol 4,5-bisphosphate 3-kinase catalytic subunit gamma isoform (Homo sapiens, UniProt P48736); experiment: Inhibition of p110gamma (unknown origin) assessed as decrease in ATP consumption at 10 uM after 60 mins by Kinase-Glo assay relative to control
Target sequence in this assay (P48736 whole entry, looked up, canonical isoform): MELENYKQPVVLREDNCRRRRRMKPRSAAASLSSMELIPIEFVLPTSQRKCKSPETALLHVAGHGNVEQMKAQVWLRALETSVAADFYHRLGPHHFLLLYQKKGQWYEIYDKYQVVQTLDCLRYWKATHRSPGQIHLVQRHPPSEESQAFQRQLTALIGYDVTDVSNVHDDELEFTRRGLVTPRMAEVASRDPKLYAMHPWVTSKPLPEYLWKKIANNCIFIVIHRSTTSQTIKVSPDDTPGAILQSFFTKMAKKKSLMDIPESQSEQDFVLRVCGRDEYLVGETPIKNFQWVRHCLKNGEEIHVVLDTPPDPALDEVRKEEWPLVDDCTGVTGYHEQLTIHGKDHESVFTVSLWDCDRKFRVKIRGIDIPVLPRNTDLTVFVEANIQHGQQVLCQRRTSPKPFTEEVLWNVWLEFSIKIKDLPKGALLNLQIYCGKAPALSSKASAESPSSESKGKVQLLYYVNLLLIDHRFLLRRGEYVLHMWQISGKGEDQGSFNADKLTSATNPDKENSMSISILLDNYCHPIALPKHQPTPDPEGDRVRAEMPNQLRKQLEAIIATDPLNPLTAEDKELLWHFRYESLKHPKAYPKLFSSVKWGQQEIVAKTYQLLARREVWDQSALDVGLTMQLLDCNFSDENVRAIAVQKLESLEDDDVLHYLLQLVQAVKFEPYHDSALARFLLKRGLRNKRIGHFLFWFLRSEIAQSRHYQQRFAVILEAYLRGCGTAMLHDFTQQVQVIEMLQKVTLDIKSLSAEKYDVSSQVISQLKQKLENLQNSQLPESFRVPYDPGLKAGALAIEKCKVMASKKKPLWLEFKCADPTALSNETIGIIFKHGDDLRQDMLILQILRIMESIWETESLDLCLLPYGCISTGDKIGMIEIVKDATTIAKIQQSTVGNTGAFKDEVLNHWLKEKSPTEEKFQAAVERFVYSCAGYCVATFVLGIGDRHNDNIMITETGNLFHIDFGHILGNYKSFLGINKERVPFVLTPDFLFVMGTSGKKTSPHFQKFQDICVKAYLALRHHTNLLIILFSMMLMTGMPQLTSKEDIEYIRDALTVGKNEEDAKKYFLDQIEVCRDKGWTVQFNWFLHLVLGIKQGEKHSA

[6] = target: T3, Phosphatidylinositol 4,5-bisphosphate 3-kinase catalytic subunit delta isoform (Homo sapiens) (UniProt O00329); experiment: Inhibition of p110delta (unknown origin) assessed as decrease in ATP consumption at 10 uM after 60 mins by Kinase-Glo assay relative to control
T3 sequence (whole entry): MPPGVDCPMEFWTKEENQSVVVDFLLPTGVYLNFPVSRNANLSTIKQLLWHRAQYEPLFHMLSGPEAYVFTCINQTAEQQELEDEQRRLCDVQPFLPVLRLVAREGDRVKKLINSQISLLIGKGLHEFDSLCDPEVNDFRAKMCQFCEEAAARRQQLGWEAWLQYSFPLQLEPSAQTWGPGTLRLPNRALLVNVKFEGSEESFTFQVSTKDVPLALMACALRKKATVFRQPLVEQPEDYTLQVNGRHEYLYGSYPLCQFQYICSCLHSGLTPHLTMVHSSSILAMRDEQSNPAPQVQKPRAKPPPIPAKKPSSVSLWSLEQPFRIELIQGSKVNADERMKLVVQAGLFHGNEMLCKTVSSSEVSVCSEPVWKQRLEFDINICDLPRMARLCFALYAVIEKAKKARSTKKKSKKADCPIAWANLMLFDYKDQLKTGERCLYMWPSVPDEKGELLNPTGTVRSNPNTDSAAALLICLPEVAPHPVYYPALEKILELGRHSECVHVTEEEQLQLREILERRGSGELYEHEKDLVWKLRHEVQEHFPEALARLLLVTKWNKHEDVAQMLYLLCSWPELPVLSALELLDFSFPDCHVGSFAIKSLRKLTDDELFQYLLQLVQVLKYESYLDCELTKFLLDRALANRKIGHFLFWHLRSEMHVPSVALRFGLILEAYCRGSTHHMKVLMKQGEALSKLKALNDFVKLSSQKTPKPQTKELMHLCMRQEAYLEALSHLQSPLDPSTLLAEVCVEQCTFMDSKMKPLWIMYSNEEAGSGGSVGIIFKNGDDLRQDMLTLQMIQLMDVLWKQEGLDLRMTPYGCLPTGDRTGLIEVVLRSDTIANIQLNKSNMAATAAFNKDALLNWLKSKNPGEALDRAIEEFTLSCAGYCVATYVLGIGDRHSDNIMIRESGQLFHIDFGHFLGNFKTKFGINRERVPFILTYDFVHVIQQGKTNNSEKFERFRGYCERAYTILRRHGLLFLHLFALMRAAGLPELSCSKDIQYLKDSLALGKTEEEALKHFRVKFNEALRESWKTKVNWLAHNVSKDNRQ

[7] = target: T4, Phosphatidylinositol 4,5-bisphosphate 3-kinase catalytic subunit alpha isoform (Homo sapiens, UniProt P42336); experiment: Inhibition of p110alpha (unknown origin) assessed as decrease in ATP consumption at 10 uM after 60 mins by Kinase-Glo assay relative to control
[8] = Antiplatelet activity in human platelet rich plasma assessed as inhibition of collagen-induced platelet aggregation preincubated for 2 mins followed by collagen addition by two-channel platelet aggregometer; format: functional
[9] = target: T1, Phosphatidylinositol 4,5-bisphosphate 3-kinase catalytic subunit beta isoform; experiment: Inhibition of p110beta (unknown origin) assessed as decrease in ATP consumption after 60 mins by Kinase-Glo assay
Target sequence in this assay (P42338 whole entry, canonical isoform): as the sequence (P42338 whole entry, looked up, canonical isoform) above

[10] = target: T4, Phosphatidylinositol 4,5-bisphosphate 3-kinase catalytic subunit alpha isoform; experiment: Inhibition of p110alpha (unknown origin) assessed as decrease in ATP consumption after 60 mins by Kinase-Glo assay
[11] = target: T2, Phosphatidylinositol 4,5-bisphosphate 3-kinase catalytic subunit gamma isoform; experiment: Inhibition of p110gamma (unknown origin) assessed as decrease in ATP consumption after 60 mins by Kinase-Glo assay
Target sequence in this assay (P48736 whole entry, canonical isoform): as the sequence (P48736 whole entry, looked up, canonical isoform) above

[12] = target: T5, Phosphatidylinositol 4,5-bisphosphate 3-kinase catalytic subunit delta isoform (Homo sapiens, UniProt O00329); experiment: Inhibition of p110delta (unknown origin) assessed as decrease in ATP consumption after 60 mins by Kinase-Glo assay
T5 sequence (O00329 whole entry): T3 sequence (whole entry)

T4 sequence (P42336 whole entry, canonical isoform): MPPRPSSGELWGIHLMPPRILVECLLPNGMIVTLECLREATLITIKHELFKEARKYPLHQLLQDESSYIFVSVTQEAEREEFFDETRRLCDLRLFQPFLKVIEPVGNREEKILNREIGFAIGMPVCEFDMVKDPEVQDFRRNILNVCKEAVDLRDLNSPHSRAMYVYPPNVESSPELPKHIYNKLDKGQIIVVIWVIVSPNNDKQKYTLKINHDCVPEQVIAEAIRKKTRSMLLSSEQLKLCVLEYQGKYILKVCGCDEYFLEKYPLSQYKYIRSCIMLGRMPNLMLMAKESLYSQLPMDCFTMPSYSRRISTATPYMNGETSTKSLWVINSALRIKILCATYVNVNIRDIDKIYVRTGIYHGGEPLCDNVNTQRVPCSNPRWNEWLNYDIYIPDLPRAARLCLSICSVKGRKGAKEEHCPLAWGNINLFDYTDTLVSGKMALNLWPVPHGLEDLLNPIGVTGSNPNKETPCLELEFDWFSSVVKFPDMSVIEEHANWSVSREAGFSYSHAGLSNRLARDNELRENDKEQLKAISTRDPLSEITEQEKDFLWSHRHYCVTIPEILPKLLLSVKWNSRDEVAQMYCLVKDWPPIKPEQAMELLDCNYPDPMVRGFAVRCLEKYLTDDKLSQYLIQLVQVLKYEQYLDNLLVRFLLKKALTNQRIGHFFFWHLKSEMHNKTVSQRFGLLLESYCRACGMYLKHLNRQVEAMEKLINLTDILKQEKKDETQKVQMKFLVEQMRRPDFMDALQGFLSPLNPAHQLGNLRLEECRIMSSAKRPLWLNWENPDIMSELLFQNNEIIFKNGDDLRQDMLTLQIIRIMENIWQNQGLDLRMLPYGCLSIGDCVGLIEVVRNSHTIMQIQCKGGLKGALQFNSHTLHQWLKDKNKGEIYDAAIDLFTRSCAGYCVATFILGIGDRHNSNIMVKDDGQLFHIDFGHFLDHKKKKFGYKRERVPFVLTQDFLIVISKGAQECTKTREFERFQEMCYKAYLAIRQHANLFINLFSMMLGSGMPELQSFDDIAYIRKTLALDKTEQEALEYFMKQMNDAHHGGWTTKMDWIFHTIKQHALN
cGMP-inhibited 3',5'-cyclic phosphodiesterase 3A (Homo sapiens), sequence (Q14432 whole entry): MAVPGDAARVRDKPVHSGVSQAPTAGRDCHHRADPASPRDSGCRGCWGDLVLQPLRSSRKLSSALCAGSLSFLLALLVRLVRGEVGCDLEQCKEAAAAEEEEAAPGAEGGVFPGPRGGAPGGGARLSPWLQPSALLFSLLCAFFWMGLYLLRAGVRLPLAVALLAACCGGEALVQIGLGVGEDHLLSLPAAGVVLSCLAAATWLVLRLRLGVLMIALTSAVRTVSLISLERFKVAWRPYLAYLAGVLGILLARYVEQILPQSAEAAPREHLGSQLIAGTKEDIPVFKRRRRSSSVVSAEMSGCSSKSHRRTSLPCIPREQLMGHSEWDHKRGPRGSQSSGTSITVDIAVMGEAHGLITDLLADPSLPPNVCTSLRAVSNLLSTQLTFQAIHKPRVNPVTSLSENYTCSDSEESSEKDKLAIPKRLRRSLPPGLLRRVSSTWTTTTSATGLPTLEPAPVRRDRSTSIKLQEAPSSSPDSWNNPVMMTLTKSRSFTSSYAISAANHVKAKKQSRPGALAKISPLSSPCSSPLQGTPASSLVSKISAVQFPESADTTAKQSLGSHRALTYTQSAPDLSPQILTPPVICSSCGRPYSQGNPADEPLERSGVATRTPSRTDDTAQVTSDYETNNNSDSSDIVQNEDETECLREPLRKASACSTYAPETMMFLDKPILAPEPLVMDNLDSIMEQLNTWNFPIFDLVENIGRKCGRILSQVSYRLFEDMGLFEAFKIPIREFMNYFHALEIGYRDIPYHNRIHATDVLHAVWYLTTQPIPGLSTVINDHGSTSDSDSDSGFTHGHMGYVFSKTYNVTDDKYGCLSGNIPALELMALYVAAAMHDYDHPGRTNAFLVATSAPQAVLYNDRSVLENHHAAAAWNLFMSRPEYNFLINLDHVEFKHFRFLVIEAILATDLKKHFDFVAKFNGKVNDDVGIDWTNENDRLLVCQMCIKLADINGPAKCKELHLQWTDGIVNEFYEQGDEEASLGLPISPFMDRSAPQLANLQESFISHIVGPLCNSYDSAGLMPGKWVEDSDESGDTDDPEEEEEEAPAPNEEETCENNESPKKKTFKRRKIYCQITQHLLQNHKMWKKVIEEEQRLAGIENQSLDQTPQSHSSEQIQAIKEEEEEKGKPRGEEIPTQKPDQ

SMILES	inhibition [1]	inhibition [2]	inhibition [3]	IC50 [4]	inhibition [5]	inhibition [6]	inhibition [7]	IC50 [8]	IC50 [9]	IC50 [10]	IC50 [11]	IC50 [12]
O=c1nc(N2CCOCC2)oc2c1cc(/C=C/c1ccccc1)c1ccccc12	18%	5.9%										
O=c1nc(N2CCOCC2)oc2c1ccc1ccccc12			15%	10 µM	4%	12%	22%	> 80 µM				
O=c1nc(N2CCOCC2)oc2c1cc(-c1ccccc1)c1ccccc12	15%	22%	10%		34%	3%	35%	3 µM				
O=c1nc(N2CCOCC2)oc2ccc3cc(-c4ccc(Cl)cc4)ccc3c12	-4%	8.1%	-1%		0%	-1%	-5%					
COc1ccc(-c2c3ccccc3cc3c(=O)nc(N4CCOCC4)oc23)cc1	6%			11.9 µM				> 80 µM	> 50 µM	> 50 µM	> 50 µM	5.6 µM
O=c1nc(N2CCOCC2)oc2c1cc(-c1ccc(Cl)cc1)c1ccccc12	1%	11%										
O=c1nc(N2CCOCC2)oc2c1cc(-c1ccsc1)c1ccccc12	22%	22%										
COc1ccc(-c2ccc3c(ccc4oc(N5CCOCC5)nc(=O)c43)c2)cc1	18%		0%		-2%	0%	0%					
O=c1nc(N2CCOCC2)oc2cc3ccccc3cc12						-10%						
O=c1nc(N2CCOCC2)oc2c(-c3ccc(Cl)cc3)c3ccccc3cc12	24%		0%	> 100 µM	3%	52%	8%	> 80 µM				
Nc1cccc(-c2cc3c(=O)nc(N4CCOCC4)oc3c3ccccc23)c1	-3%											
O=c1nc(N2CCOCC2)oc2ccc3cc(-c4cccc5c4sc4ccccc45)ccc3c12	5%	0%										
COc1ccc(-c2cc3c(=O)nc(N4CCOCC4)oc3c3ccccc23)cc1	26%	19%	42%		17%	9%	20%	14 µM				
NC(=O)c1ccc(-c2cc3c(=O)nc(N4CCOCC4)oc3c3ccccc23)cc1	7%	10%										
O=c1nc(N2CCOCC2)oc2ccc3cc(-c4cccc5c4oc4ccccc45)ccc3c12	12%	0%										
O=c1nc(N2CCOCC2)oc2c1cc(-c1cccc3c1oc1ccccc13)c1ccccc12	11%	24%	22%		24%	0%	9%	2 µM				
O=c1nc(N2CCOCC2)oc2ccc3cc(-c4ccccc4)ccc3c12	13%	0%	-3%		1%	-1%	-2%					
O=c1nc(N2CCOCC2)oc2c1cc(-c1cccc3c1sc1ccccc13)c1ccccc12	30%	0%	11%		12%	0%	23%	5 µM				
O=c1nc(N2CCOCC2)oc2ccc3ccccc3c12			23%	38.8 µM	2%	8%	4%	> 80 µM				
O=c1nc(N2CCOCC2)oc2c(-c3ccccc3)c3ccccc3cc12	32%			78.1 µM				> 80 µM	> 50 µM	43.8 µM	> 50 µM	7.7 µM
O=c1nc(N2CCOCC2)oc2c1cc(-c1cccc3ccccc13)c1ccccc12	26%	10%										
O=c1nc(N2CCOCC2)oc2c1cc(-c1ccc(CO)cc1)c1ccccc12	35%											
O=c1nc(N2CCOCC2)oc2c1cc(-c1cccs1)c1ccccc12	32%	34%										
